Test results from the NIST ThermoML archive (doi:10.1016/j.fluid.2018.10.024).
± gives the expanded uncertainty stated by the source.

How the values were obtained:
[1] = refractive index (Na D-line) (dimensionless); settings: 101.33 kPa, Liquid, Standard Abbe refractometry
[2] = 101.33 kPa, Liquid; for viscosity: Capillary tube (Ostwald / Ubbelohde) method; for mass density: Vibrating tube method
[3] = refractive index (Na D-line) (dimensionless); xn = mol fraction of the nth substance listed; settings: 101 kPa, Liquid, Standard Abbe refractometry, x1 = 1
[4] = xn = mol fraction of the nth substance listed; settings: 101 kPa, Liquid, x1 = 1; for viscosity: Capillary tube (Ostwald / Ubbelohde) method; for mass density: Vibrating tube method

Work on `CC(C)=O` [acetone] yielded a refractive index ([1]; 298.15 K) of 1.3558 ± 0.0006, a refractive index ([1]; 303.15 K) of 1.3534 ± 0.0006 and a refractive index ([1]; 308.15 K) of 1.3509 ± 0.0006. The refractive index ([1]; 313.15 K) was 1.349 ± 0.0006, the refractive index ([1]; 318.15 K) was 1.3449 ± 0.0006 and the viscosity ([2]; 298.15 K) was 0.3034 ± 0.0024 mPa·s. It also gave a mass density ([2]; 298.15 K) of 784.41 ± 0.12 kg/m3, a viscosity ([2]; 303.15 K) of 0.2966 ± 0.0024 mPa·s and a mass density ([2]; 303.15 K) of 778.66 ± 0.13 kg/m3. The viscosity ([2]; 308.15 K) was 0.2831 ± 0.0023 mPa·s, the mass density ([2]; 308.15 K) was 773.08 ± 0.13 kg/m3 and the viscosity ([2]; 313.15 K) was 0.2689 ± 0.0023 mPa·s. For the same compound, the mass density ([2]; 313.15 K) was 766.95 ± 0.13 kg/m3, the viscosity ([2]; 318.15 K) was 0.2511 ± 0.0022 mPa·s and the mass density ([2]; 318.15 K) was 761.26 ± 0.13 kg/m3.
In the case of `CC(C)=O` [acetone] + ClC(Cl)Cl, the refractive index ([3]; 298.15 K) is reported as 1.3558 ± 0.0006, the refractive index ([3]; 303.15 K) is reported as 1.3534 ± 0.0006 and the refractive index ([3]; 308.15 K) is reported as 1.3509 ± 0.0006. For the same compound, the refractive index ([3]; 313.15 K) was 1.349 ± 0.0006, the refractive index ([3]; 318.15 K) was 1.3449 ± 0.0006 and the viscosity ([4]; 298.15 K) was 0.3034 ± 0.0024 mPa·s. The mass density ([4]; 298.15 K) was 784.41 ± 0.12 kg/m3, the viscosity ([4]; 303.15 K) was 0.2966 ± 0.0024 mPa·s and the mass density ([4]; 303.15 K) was 778.66 ± 0.12 kg/m3. The viscosity ([4]; 308.15 K) was 0.2831 ± 0.0024 mPa·s, the mass density ([4]; 308.15 K) was 773.08 ± 0.13 kg/m3 and the viscosity ([4]; 313.15 K) was 0.2689 ± 0.0023 mPa·s. It also gave a mass density ([4]; 313.15 K) of 766.95 ± 0.13 kg/m3, a viscosity ([4]; 318.15 K) of 0.2511 ± 0.0022 mPa·s and a mass density ([4]; 318.15 K) of 761.26 ± 0.13 kg/m3.
`CO` [methanol] showed a refractive index ([1]; 298.15 K) of 1.3271 ± 0.0006, a refractive index ([1]; 303.15 K) of 1.3245 ± 0.0006 and a refractive index ([1]; 308.15 K) of 1.323 ± 0.0006. For the same compound, the refractive index ([1]; 313.15 K) was 1.3208 ± 0.0006, the refractive index ([1]; 318.15 K) was 1.3184 ± 0.0006 and the viscosity ([2]; 298.15 K) was 0.5467 ± 0.0037 mPa·s. The mass density ([2]; 298.15 K) was 787.21 ± 0.12 kg/m3, the viscosity ([2]; 303.15 K) was 0.5058 ± 0.0035 mPa·s and the mass density ([2]; 303.15 K) was 782.75 ± 0.12 kg/m3. It also gave a viscosity ([2]; 308.15 K) of 0.4818 ± 0.0034 mPa·s, a mass density ([2]; 308.15 K) of 777.56 ± 0.12 kg/m3 and a viscosity ([2]; 313.15 K) of 0.4484 ± 0.0032 mPa·s. For the same compound, the mass density ([2]; 313.15 K) was 772.97 ± 0.12 kg/m3, the viscosity ([2]; 318.15 K) was 0.4208 ± 0.0031 mPa·s and the mass density ([2]; 318.15 K) was 768.03 ± 0.13 kg/m3.
In the case of `CO` [methanol] + CC(C)=O, the refractive index ([3]; 298.15 K) is reported as 1.3271 ± 0.0006, the refractive index ([3]; 303.15 K) is reported as 1.3245 ± 0.0006 and the refractive index ([3]; 308.15 K) is reported as 1.323 ± 0.0006. The refractive index ([3]; 313.15 K) was 1.3208 ± 0.0006, the refractive index ([3]; 318.15 K) was 1.3184 ± 0.0006 and the viscosity ([4]; 298.15 K) was 0.5467 ± 0.0037 mPa·s. For the same compound, the mass density ([4]; 298.15 K) was 787.21 ± 0.12 kg/m3, the viscosity ([4]; 303.15 K) was 0.5058 ± 0.0035 mPa·s and the mass density ([4]; 303.15 K) was 782.75 ± 0.12 kg/m3. It also gave a viscosity ([4]; 308.15 K) of 0.4818 ± 0.0034 mPa·s, a mass density ([4]; 308.15 K) of 777.56 ± 0.12 kg/m3 and a viscosity ([4]; 313.15 K) of 0.4484 ± 0.0032 mPa·s. It also gave a mass density ([4]; 313.15 K) of 772.97 ± 0.12 kg/m3, a viscosity ([4]; 318.15 K) of 0.4208 ± 0.0031 mPa·s and a mass density ([4]; 318.15 K) of 768.03 ± 0.12 kg/m3.
In the case of `CO` [methanol] + ClC(Cl)Cl, the refractive index ([3]; 298.15 K) is reported as 1.3271 ± 0.0006, the refractive index ([3]; 303.15 K) is reported as 1.3245 ± 0.0006 and the refractive index ([3]; 308.15 K) is reported as 1.323 ± 0.0006. The refractive index ([3]; 313.15 K) was 1.3208 ± 0.0006, the refractive index ([3]; 318.15 K) was 1.3184 ± 0.0006 and the viscosity ([4]; 298.15 K) was 0.5467 ± 0.0037 mPa·s. It also gave a mass density ([4]; 298.15 K) of 787.21 ± 0.12 kg/m3, a viscosity ([4]; 303.15 K) of 0.5058 ± 0.0035 mPa·s and a mass density ([4]; 303.15 K) of 782.75 ± 0.12 kg/m3. The viscosity ([4]; 308.15 K) was 0.4765 ± 0.0034 mPa·s, the mass density ([4]; 308.15 K) was 777.56 ± 0.12 kg/m3 and the viscosity ([4]; 313.15 K) was 0.4426 ± 0.0032 mPa·s. It also gave a mass density ([4]; 313.15 K) of 772.97 ± 0.12 kg/m3, a viscosity ([4]; 318.15 K) of 0.4153 ± 0.003 mPa·s and a mass density ([4]; 318.15 K) of 768.03 ± 0.12 kg/m3.
`ClC(Cl)Cl` [trichloromethane] showed a refractive index ([1]; 298.15 K) of 1.4422 ± 0.0006, a refractive index ([1]; 303.15 K) of 1.4397 ± 0.0006 and a refractive index ([1]; 308.15 K) of 1.4356 ± 0.0006. It also gave a refractive index ([1]; 313.15 K) of 1.4338 ± 0.0006, a refractive index ([1]; 318.15 K) of 1.4297 ± 0.0006 and a viscosity ([2]; 298.15 K) of 0.5916 mPa·s. For the same compound, the mass density ([2]; 298.15 K) was 1478.75 ± 0.38 kg/m3, the viscosity ([2]; 303.15 K) was 0.558 mPa·s and the mass density ([2]; 303.15 K) was 1469.16 ± 0.37 kg/m3. The viscosity ([2]; 308.15 K) was 0.5333 mPa·s, the mass density ([2]; 308.15 K) was 1460.01 ± 0.37 kg/m3 and the viscosity ([2]; 313.15 K) was 0.5072 mPa·s. For the same compound, the mass density ([2]; 313.15 K) was 1450.39 ± 0.36 kg/m3, the viscosity ([2]; 318.15 K) was 0.4849 mPa·s and the mass density ([2]; 318.15 K) was 1440.03 ± 0.36 kg/m3.
